These results are taken from US12662469B2 (SIRONAX LTD, priority 2018, dated 2026).

As usually defined, the pEC50 is the EC50 on a negative log10 scale, so that one unit is a factor of ten.

pEC50: −log10 of the molar value.

The first assay has as its system Cell Necrosis. The assay is described as follows: Cell necrosis assay / cell viability assay (necrosis inhibitor activity). Type of assay: cell-based.
Details: not given
`O=C(N1CCN(Cc2ccccc2)CC1)N1N=CCC1c1ccccc1` (stereo not drawn) [Compound 97, (4-benzylpiperazin-1-yl)(5-phenyl-4,5-dihydro-1H-pyrazol-1-yl)methanone] had a negative-log EC50 (pEC50) of 5.00 to 6.00.
The molecule `O=C(N1CC(Oc2ccc3ccccc3c2)C1)N1N=CC[C@H]1c1cc(F)cc(F)c1` [Compound 203, (S)(5-(3,5-difluorophenyl)-4,5-dihydro-1H-pyrazol-1-yl)(3-(naphthalen-2-yloxy)azetidin-1-yl)methanone] showed a pEC50 of 6.00 to 9.00.

Still in this assay, the particulars now being: necrosis inhibitor activity; EC data for 14-191 extrapolated; read-out: EC50.
`C[C@@H]1CN(c2ncc(F)cn2)C[C@H](C)N1C(=O)N1OCC[C@H]1c1ccccc1` [Compound 110, ((2R,6S)-4-(5-fluoropyrimidin-2-yl)-2,6-dimethylpiperazin-1-yl)((S)-3-phenylisoxazolidin-2-yl)methanone]: the pEC50 was 6.00 to 9.00.
For the molecule `O=C(N1CC(=Cc2ccc(F)cc2F)C1)N1N=CCC1c1cc(F)cc(F)c1` (stereo not drawn) [Compound 55, (3-(2,4-difluorobenzylidene)azetidin-1-yl)(5-(3,5-difluorophenyl)-4,5-dihydro-1H-pyrazol-1-yl)methanone], the pEC50 is 6.00 to 9.00.
Still for that read-out and setting: to `O=C(N1CC(Oc2ccc(O)cc2)C1)N1N=CCC1c1ccccc1` (stereo not drawn) [Compound 70, (3-(4-hydroxyphenoxy)azetidin-1-yl)(5-phenyl-4,5-dihydro-1H-pyrazol-1-yl)methanone] belongs 5.00 to 6.00; to `O=C(N1CC(Oc2ccccc2F)C1)N1OCC[C@H]1c1ccccc1` [Compound 77, (S)-(3-(2-fluorophenoxy)azetidin-1-yl)(3-phenylisoxazolidin-2-yl)methanone], 6.00 to 9.00.
On the same count and under the same terms, to `O=C(N1CC(Cc2ccc(F)cc2F)C1)N1OCC[C@H]1c1ccccc1` [Compound 82, (S)-(3-(2,4-difluorobenzyl)azetidin-1-yl)(3-phenylisoxazolidin-2-yl)methanone] belongs 6.00 to 9.00.
Same read-out and setting: then `O=C(N1CC(Cc2ccc(Cl)cc2)C1)N1N=CCC1c1ccccc1` (stereo not drawn) [Compound 49, (3-(4-chlorobenzyl)azetidin-1-yl)(5-phenyl-4,5-dihydro-1H-pyrazol-1-yl)methanone], with 6.00 to 9.00.
Regarding `Cc1csc(OC2CN(C(=O)N3N=CCC3c3cc(F)cc(F)c3)C2)n1` (stereo not drawn) [Compound 175], the pEC50 was 6.00 to 9.00.
On the same count and under the same terms, to `Cc1ccccc1C=C1CN(C(=O)N2N=CCC2c2ccccc2)C1` (stereo not drawn) [Compound 38, (3-(2-methylbenzylidene)azetidin-1-yl)(5-phenyl-4,5-dihydro-1H-pyrazol-1-yl)methanone] belongs 6.00 to 9.00.
Same read-out and setting: to `O=C(N1CC(=Cc2ccc3ccc(=O)[nH]c3c2)C1)N1N=CCC1c1cc(F)cc(F)c1` (stereo not drawn) [Compound 190] belongs 6.00 to 9.00; to `O=C(N1CC[C@H](Oc2ccccc2)C1)N1N=CCC1c1ccccc1` (stereo partly drawn) [Compound 27A, ((S)-3-phenoxypyrrolidin-1-yl)(S-phenyl-4,5-dihydro-1H-pyrazol-1-yl)methanone], 5.00 to 6.00.
Same read-out and setting: to `CNC(=O)c1cccc(OC2CN(C(=O)N3N=CCC3c3cc(F)cc(F)c3)C2)c1Cl` (stereo not drawn) [Compound 164] belongs 6.00 to 9.00; to `O=C(N1CCc2ccccc2C1)N1N=CCC1c1ccccc1` (stereo not drawn) [Compound 15, (3,4-dihydroisoquinolin-2(1H)-yl)(5-phenyl-4,5-dihydro-1H-pyrazol-1-yl)methanone], 5.00 to 6.00.
Regarding `O=C(N1CC(=Cc2ccc(F)cc2Cl)C1)N1N=CCC1c1cc(F)cc(F)c1` (stereo not drawn) [Compound 139, (3-(2-chloro-4-fluorobenzylidene)azetidin-1-yl)(5-(3,5-difluorophenyl)-4,5-dihydro-1H-pyrazol-1-yl)methanone], the pEC50 is 6.00 to 9.00.
Consider `C[C@H]1CN(c2ccc(F)cn2)CCN1C(=O)N1N=CCC1c1ccccc1` (stereo partly drawn) [Compound 115A, ((S)-4-(5-fluoropyridin-2-yl)-2-methylpiperazin-1-yl)(5-phenyl-4,5-dihydro-1H-pyrazol-1-yl)methanone], for which the pEC50 was 6.00 to 9.00.
Same read-out and setting: to `C[C@@H]1CN(c2ncc(F)cn2)C[C@H](C)N1C(=O)N1N=CCC1c1cccc(F)c1` (stereo partly drawn) [Compound 29, (5-(3-fluorophenyl)-4,5-dihydro-1H-pyrazol-1-yl)((2R,6S)-4-(5-fluoropyrimidin-2-yl)-2,6-dimethylpiperazin-1-yl)methanone] belongs 6.00 to 9.00.
Regarding `O=C(N1CC/C(=C/c2ccccc2)C1)N1N=CCC1c1ccccc1` (stereo not drawn) [Compound 58, (Z)-(3-benzylidenepyrrolidin-1-yl)(5-phenyl-4,5-dihydro-1H-pyrazol-1-yl)methanone], the pEC50 is 6.00 to 9.00.
Same read-out and setting: to `O=C(N1CCC(Cc2ccccc2)CC1)N1N=CCC1c1ccccc1` (stereo not drawn) [Compound 18, (4-benzylpiperidin-1-yl)(5-phenyl-4,5-dihydro-1H-pyrazol-1-yl)methanone] belongs 6.00 to 9.00; to `N#Cc1ccc(OC2CN(C(=O)N3N=CCC3c3cc(F)cc(F)c3)C2)cc1F` (stereo not drawn) [Compound 137, 4-((1-(5-(3,5-difluorophenyl)-4,5-dihydro-1H-pyrazole-1-carbonyl)azetidin-3-yl)oxy)-2-fluorobenzonitrile], 6.00 to 9.00.

The assay is the same for the next values; noted with them: necrosis inhibitor activity; compounds outside 14-191; read-out: EC50.
Turning to `CC1Oc2ccc(OC3CN(C(=O)N4N=CC[C@H]4c4ccccc4)C3)cc2NC1=O` (stereo partly drawn) [Compound 355, 2-methyl-6-((1-((S)-5-phenyl-4,5-dihydro-1H-pyrazole-1-carbonyl)azetidin-3-yl)oxy)-2H-benzo[b][1,4]oxazin-3(4H)-one], the pEC50 is 6.00 to 9.00.
On the same count and under the same terms, to `O=C(Nc1nccc(O[C@@H]2CCN(C(=O)N3N=CC[C@H]3c3cc(F)cc(F)c3)C2)n1)C1CC1` [Compound 369, N-(4-(((R)-1-((S)-5-(3,5-difluorophenyl)-4,5-dihydro-1H-pyrazole-1-carbonyl)pyrrolidin-3-yl)oxy)pyrimidin-2-yl)cyclopropanecarboxamide] belongs 6.00 to 9.00; to `NC(=O)c1cc(OC2CN(C(=O)N3N=CC[C@H]3c3cc(F)cc(F)c3)C2)c(F)cc1F` [Compound 239, (S)-5-((1-(5-(3,5-difluorophenyl)-4,5-dihydro-1H-pyrazole-1-carbonyl)azetidin-3-yl)oxy)-2,4-difluorobenzamide], 6.00 to 9.00; to `O=C(c1nc(OC2CN(C(=O)N3N=CC[C@H]3c3cc(F)cc(F)c3)C2)sc1Cl)N1CCC1` [Compound 275], 6.00 to 9.00.
Same read-out and setting: then `N#Cc1csc(OC2CN(C(=O)N3N=CCC3c3cncc(F)c3)C2)n1` (stereo not drawn) [Compound 281, 2-((1-(5-(5-fluoropyridin-3-yl)-4,5-dihydro-1H-pyrazole-1-carbonyl)azetidin-3-yl)oxy)thiazole-4-carbonitrile], with 6.00 to 9.00; and `O=C(N1CC(Oc2ccc(OCc3ccccc3)nc2)C1)N1N=CCC1c1cc(F)cc(F)c1` (stereo not drawn) [Compound 211, (3-((6-(benzyloxy)pyridin-3-yl)oxy)azetidin-1-yl)(5-(3,5-difluorophenyl)-4,5-dihydro-1H-pyrazol-1-yl)methanone], with 6.00 to 9.00.
For the molecule `O=C(Nc1nc(N2CCN(C(=O)N3N=CC[C@H]3c3cc(F)cc(F)c3)CC2)ncc1F)C1CCOCC1` [Compound 293, (S)—N-(2-(4-(5-(3,5-difluorophenyl)-4,5-dihydro-1H-pyrazole-1-carbonyl)piperazin-1-yl)-5-fluoropyrimidin-4-yl)tetrahydro-2H-pyran-4-carboxamide], the pEC50 is 6.00 to 9.00.
Same read-out and setting: to `N#Cc1ccc(O[C@@H]2CCN(C(=O)N3N=CC[C@H]3c3cc(F)cc(F)c3)C2)cc1` [Compound 343, 4-(((R)-1-((S)-5-(3,5-difluorophenyl)-4,5-dihydro-1H-pyrazole-1-carbonyl)pyrrolidin-3-yl)oxy)benzonitrile] belongs 6.00 to 9.00; to `O=C(N1CC(CN2Cc3cn[nH]c3C2)C1)N1N=CC[C@H]1c1cc(F)cc(F)c1` [Compound 375, (S)-(5-(3,5-difluorophenyl)-4,5-dihydro-1H-pyrazol-1-yl)(3-((4,6-dihydropyrrolo[3,4-c]pyrazol-5(1H)-yl)methyl)azetidin-1-yl)methanone], 6.00 to 9.00.
With `O=C(N1CC(Oc2ccc(-c3ncc[nH]3)cc2)C1)N1N=CC[C@H]1c1cc(F)cc(F)c1` [Compound 219, (S)-(3-(4-(1H-imidazol-2-yl)phenoxy)azetidin-1-yl)(5-(3,5-difluorophenyl)-4,5-dihydro-1H-pyrazol-1-yl)methanone], the pEC50 is 6.00 to 9.00.
Still for that read-out and setting: to `O=C(N1CCN(c2ncc3cc[nH]c3n2)CC1)N1N=CC[C@H]1c1cc(F)cc(F)c1` [Compound 279, (S)-(4-(7H-pyrrolo[2,3-d]pyrimidin-2-yl)piperazin-1-yl)(5-(3,5-difluorophenyl)-4,5-dihydro-1H-pyrazol-1-yl)methanone] belongs 6.00 to 9.00; to `NC(=O)CC[C@@H]1Oc2cc(F)c(OC3CN(C(=O)N4N=CC[C@H]4c4cc(F)cc(F)c4)C3)cc2NC1=O` [Compound 245, 3-((S)-6-((1-((S)-5-(3,5-difluorophenyl)-4,5-dihydro-1H-pyrazole-1-carbonyl)azetidin-3-yl)oxy)-7-fluoro-3-oxo-3,4-dihydro-2H-benzo[b][1,4]oxazin-2-yl)propanamide], 6.00 to 9.00; to `CC1Oc2cc(F)c(OC3CN(C(=O)N4N=CC[C@H]4c4cc(F)cc(F)c4)C3)cc2NC1=O` (stereo partly drawn) [Compound 350, 6-((1-((S)-5-(3,5-difluorophenyl)-4,5-dihydro-1H-pyrazole-1-carbonyl)azetidin-3-yl)oxy)-7-fluoro-2-methyl-2H-benzo[b][1,4]oxazin-3(4H)-one], 6.00 to 9.00.
On the same count and under the same terms, then `CCOC(=O)c1nc(OC2CN(C(=O)N3N=CC[C@H]3c3cc(F)cc(F)c3)C2)sc1Cl` [Compound 272, ethyl (S)-5-chloro-2-((1-(5-(3,5-difluorophenyl)-4,5-dihydro-1H-pyrazole-1-carbonyl)azetidin-3-yl)oxy)thiazol-4-carboxylate], with 6.00 to 9.00; and `NC(=O)c1cc(OC2CN(C(=O)N3N=CC[C@H]3c3cc(F)cc(F)c3)C2)ccc1F` [Compound 220], with 6.00 to 9.00.
The same measure, in the same setting: to `CC1Oc2ccc(OC3CN(C(=O)N4N=CC[C@H]4c4cc(F)cc(F)c4)C3)cc2NC1=O` (stereo partly drawn) [Compound 349, 6-((1-((S)-5-(3,5-difluorophenyl)-4,5-dihydro-1H-pyrazole-1-carbonyl)azetidin-3-yl)oxy)-2-methyl-2H-benzo[b][1,4]oxazin-3(4H)-one] belongs 6.00 to 9.00.
